Patent US12590309B2, “Reprogramming of lipid metabolism to inhibit T cell senescence and enhance tumor immunotherapy” (Saint Louis University, priority 2019, dated 2026)
Where two headings read alike, the source gives them in different places.

Columns and labels:
senescent T cells [1] = experiment: Inflammatory cytokine mRNA by real-time qPCR in responder/senescent T cells; type: cell-based, human
Description: (§1) Reverse-transcription quantitative PCR analysis. Total RNA was extracted from T cells using Trizol reagent (Invitrogen), and cDNA was transcribed using a SuperScript II RT kit (Invitrogen), both according to manufacturers' instructions. Expression levels of each gene were determined by reverse-transcription PCR using specific primers, and mRNA levels in each sample were normalized to the relative quantity of the housekeeping GAPDH or β-actin gene expression. All experiments were performed in triplicate.

senescent T cells [2] = experiment: Suppressive activity of senescent T cells, [3H]-thymidine proliferation assay; type: cell-based, human; details: data not shown
Description: Functional proliferation assay. Proliferation assays were performed using a [^3H]-thymidine incorporation assay, as the inventors previously described (Liu et al., 2018; Ye et al., 2014; 2012; Peng et al., 2005; 2007). Naïve CD4+ T cells (1×10^5/well) purified from healthy donors were co-cultured with Treg-treated T cells at a ratio of 10:1 in 200 μl of T cell assay medium containing 2% human AB. After 56 hours of culture, [3H]-thymidine was added at a final concentration of 1 μCi/well, followed by an additional 16 hours of culture. The incorporation of [^3H]-thymidine was measured with a liquid scintillation counter.

[3] = system: naïve CD4+ and CD8+ T cells co-cultured with nTreg cells; experiment: SA-β-gal staining, T cell senescence induced by Treg cells; type: cell-based, human; details: for senescence induction in T cells co-cultured with nTreg cells, lipid supplement: naïve CD4+ T cells, lipids 5 μM or 10 μM, 3 days
Description: Senescence associated β-galactosidase staining. Senescence associated β-galactosidase (SA-β-gal) activity in senescent T cells was detected as the inventors previously described 23,32,33. Naive CD4+ or CD8+ T cells were labeled with CFSE (4.5 μM), and co-cultured with Treg cells at a ratio of 4:1 in anti-CD3-coated 24-well plates for 3 days. Co-cultured naïve T cells were then separated from co-cultures using FACS sorting gated on CFSE positive populations, and then stained with SA-β-Gal staining reagent. […] For some experiments, naïve T cells were pretreated with the following inhibitors and then co-cultured with Treg cells. SA-β-gal expression in the co-cultured naïve T cells was determined. These inhibitors include: ACAT inhibitor Avasimable (5 μM and 10 μM), lipase inhibitor orlistat (10 μM), and cPLA2α inhibitor MAFP (1 μM and 5 μM) (Cayman Chemical); ATM inhibitor KU55933 (10 μM, Tocris Bioscience); stat1 inhibitor MTA (5 μM), stat3 inhibitor S3I-201 (10 μM) (Sigma-Aldrich); MAPK inhibitors including U0126 (10 μM) and SB203580 (10 μM) (Calbiochemistry).
(§2) Lipid supplement assay. Lysophosphatidylcholine (LPC, 16:0 LPC, 16:0 aLPC, and 16:0 pLPC), Phosphatidylethanolamine (PE, 16:0 lyso PE) and Phosphatidylserine (PS, 16:0 lyso PS) were purchased from the Avanti Polar Lipids, INC. C2-Ceramide was purchased from Sigma. All the lipids were dissolved in chloroform, evaporated under a gentle stream of nitrogen and then immediately dissolved in an ethanol vehicle (0.1%). Naïve CD4+ T cells were first treated with or without the lipids (5 μM or 10 μM) for 1 hour and then co-cultured with Treg cells at a ratio of 4:1 in anti-CD3-coated (2 μg/ml) plates for 3 days. The treated naïve CD4+ T cells were then performed SA-β-gal and Oil red O staining.

B16F10 tumor = experiment: B16F10 melanoma, Pmel-1 T cell adoptive transfer therapy model in C57BL/6 mice; details: Pmel-1 T cells pretreated with ATK 0.5 μM 2 hours; ATK 10 mg·kg-1/mouse i.p. day 1, 4, 7, 10
[4] = system: naïve CD4+ and CD8+ T cells co-cultured with nTreg cells; experiment: Oil-Red O staining, LD formation in T cells co-cultured with Treg cells; type: cell-based, human
Description: as §2
(§3) Oil-Red O staining. The treated T cells were washed in PBS (pH 7.2), fixed with 4% formaldehyde for 30 minutes, and treated with 60% isopropanol for 2-5 minutes. Cells were further stained with freshly prepared Oil-Red O staining solution (Sigma-Aldrich) in isopropanol (60%) for 5 minutes, followed by quick rinse with isopropanol (60%). The stained cells were then washed with H2O thoroughly and lipid droplets in T cells were evaluated using a light microscope.

cPLA2α = experiment: cPLA2α, p21 and p53 expression in Treg-treated T cells (western blot, qPCR, flow cytometry); type: cell-based, human
Description: Flow cytometry analysis. The expression markers on T cells were determined by flow cytometry analysis after surface staining or intracellular staining with anti-human specific antibodies conjugated with PE or Alexa Flour488. The human antibodies included: anti-CD27, anti-CD28, anti-phospho-ERK (Thr202/Tyr204), anti-phospho-p38 (Thr180/Tyr182), anti-phospho-STAT1 (Tyr701), anti-phospho-STAT3 (Tyr705 or Ser727), anti-phospho-ATM, anti-phospho-H2AX, anti-phospho-CHK2, anti-phospho-53BP1, and anti-cPLA2α, which were purchased from BD Biosciences, Biolegend, or Cell Signaling Technology. For Bodipy 493/503 staining (Thermo Fisher Scientific), T cells were incubated with Bodipy 493/503 (1 μg/ml) at room temperature for 15 minutes. All stained cells were analyzed on a LSR II cytometer (BD Bioscience) and data analyzed with FlowJo software (Tree Star).
Western-blotting analysis. CFSE-labeled naïve CD4+ or CD8+ T cells were co-cultured with Treg or control T cells at a ratio of 4:1 in the anti-CD3 antibody-precoated plates (2 μg/ml) for 3 days. In some experiments, T cells were pretreated with the cPLA2α inhibitor MAFP (5 M) for 24 hours, and then co-cultured with Treg cells. Treated T cells were then sorted by FACS gating on CFSE positive T cells. Whole cell lysates of the purified CD4+ T cells were prepared for western blot analyses. Western blots were developed with the Chemiluminescent Substrate (KPL, Maryland). The rabbit polyclonal antibodies used in the western blot analyses are as following: anti-cPLA2α, anti-P53, anti-P21, and anti-GAPDH. All antibodies were purchased from the Cell Signaling Technology.
as §1

[5] = system: MAPK and STAT1/STAT3 signaling; experiment: Phosphorylation of p38, ERK, STAT1 and STAT3 by flow cytometry in Treg-treated CD4+ T cells; type: cell-based, human; details: pretreated 24 hours (KU55933 10 μM; MAFP 5 μM), Treg co-culture 3 days
[6] = system: naïve CD8+ T cells co-cultured with nTreg cells; experiment: Lipidomics (ESI-MS/MS) of Treg-induced senescent T cells; type: cell-based, human
Description: Lipidomics analysis. Lipids from T cells were extracted by the method of Bligh and Dyer in the presence of internal standards including eicosanoic acid, 1-0-heptadecanoyl-LPC, dieicosanoyl-PC, ditetradecanoyl-PE, ditetradecanoyl-PS, N-heptadecanoyl-Cer, and cholesteryl heptadecanoate (Bligh and Dyer, 1959). Extracted lipids were resuspended in methanol/chloroform (2:1, by vol.) and analyzed by ESI-MS in the direct infusion mode at a flow rate of 3 μl/min using a Thermo Electron TSQ Quantrum Ultra® instrument. Samples were analyzed in both the positive and negative ion mode using a shotgun lipidomics approach (Han and Gross, 2005). For LPC, neutral loss (NL) scanning of 59.1 was monitored in the positive ion mode for sodiated molecular ions. NL scanning of 368.5 was performed for sodiated CE molecular species in the positive ion mode (Bowden et al., 2011). PE was derivatized to fMOC-PE species and monitored in negative ion mode using NL scanning of 222.2. Neutral loss scanning for Cer (NL 256.2), PC (NL50) and PS (NL 87) was performed in the negative ion mode (Han and Gross, 2005). Fatty acids were converted to pentafluorobenzyl esters and quantified using negative ion chemical ionization detection and gas chromatography (Quehenberger et al., 2010). Spectra were averaged over 3-5 min and processed utilizing Xcalibur® software (Thermo Electron). Individual molecular species were quantified by comparing the ion intensity of individual molecular species to that of the appropriate internal standards following corrections for type I and type II 13C isotope effects (Han and Gross, 2005). Additional corrections were made from response curves for CE molecular species (Bowden et al., 2011). Each sample was normalized to cell number, and values are expressed per million cells.

naïve T cells [7] = experiment: SA-β-gal staining of naïve T cells cultured with the substance alone; type: cell-based, human
Description: Senescence associated β-galactosidase staining. […] Naive CD4+ or CD8+ T cells were labeled with CFSE (4.5 μM), and co-cultured with Treg cells at a ratio of 4:1 in anti-CD3-coated 24-well plates for 3 days. Co-cultured naïve T cells were then separated from co-cultures using FACS sorting gated on CFSE positive populations, and then stained with SA-β-Gal staining reagent. For tumor-induced T cell senescence, anti-CD3 activated naïve CD4+ T cells or CD8+ T cells were co-cultured with or without tumor cells at ratio of 1:1 for 1 day and then separated and cultured for additional 3 days. For some experiments, naïve T cells were pretreated with the following inhibitors and then co-cultured with Treg cells. SA-β-gal expression in the co-cultured naïve T cells was determined. These inhibitors include: ACAT inhibitor Avasimable (5 μM and 10 μM), lipase inhibitor orlistat (10 μM), and cPLA2α inhibitor MAFP (1 μM and 5 μM) (Cayman Chemical); ATM inhibitor KU55933 (10 μM, Tocris Bioscience); stat1 inhibitor MTA (5 μM), stat3 inhibitor S3I-201 (10 μM) (Sigma-Aldrich); MAPK inhibitors including U0126 (10 μM) and SB203580 (10 μM) (Calbiochemistry).

naïve T cells [8] = experiment: Oil-Red O staining of naïve T cells cultured with the substance alone; type: cell-based, human
Description: as §3

[9] = naïve CD4+ and CD8+ T cells pretreated with inhibitor 24 hours, co-cultured with nTreg 4:1, anti-CD3, 3 days
[10] = naïve CD4+ and CD8+ T cells pretreated with inhibitor 24 hours, co-cultured with nTreg 4:1, 3 days
[11] = pretreated with inhibitor 24 hours, Treg co-culture
[12] = anti-CD3 coated plates, 3 days, no Treg cells
[13] = CD8+ T cells pretreated with inhibitor 24 hours, nTreg co-culture 3 days

O=CC[C@@H](O)[C@H](O)[C@H](O)CO [2-DG]
secretion of pro-inflammatory cytokines by senescent T cells (senescent T cells [1]; senescent CD8+ T cells, 3-BrPA (30 μM) or 2-DG (2 mM), additional 1 day): significantly decreased
suppressive activity of senescent T cells on proliferation of effector T cells (senescent T cells [2]): inhibited their suppressive activity

O=C(O)C(=O)CBr [3-BrPA]
secretion of pro-inflammatory cytokines by senescent T cells (senescent T cells [1]): significantly decreased
suppressive activity of senescent T cells on proliferation of effector T cells (senescent T cells [2]): inhibited their suppressive activity

CCCCC/C=C\C/C=C\C/C=C\C/C=C\CCCC(=O)C(F)(F)F [ATK]
senescent (SA-β-gal+) T cell populations induced by Treg cells [3, 9]: can prevent T cell senescence
anti-tumor immunity and tumor immunotherapy, ATK (B16F10 tumor): enhances anti-tumor immunity and tumor immunotherapy in vivo

CCCCCCCCCCCCC/C=C/[C@@H](O)[C@H](CO)NC(C)=O [Cer, C2-Ceramide]
senescence induction in T cells co-cultured with nTreg cells, lipid supplement [3]: markedly prevented senescence induction

O=c1cc(-c2cccc3c2Sc2ccccc2S3)oc(N2CCOCC2)c1 [KU55933]
LD formation (Oil red O+ T cell populations) induced by Treg cells [4, 10]: dramatically reduced
senescent (SA-β-gal+) T cell populations induced by Treg cells [3, 9]: dramatically reduced
cPLA2α expression in Treg-induced senescent T cells (cPLA2α; [11]): significantly decreased both mRNA and protein expression of cPLA2α
phosphorylation of p38, ERK, STAT1 and STAT3 in Treg-treated CD4+ T cells [5]: prevented phosphorylation of MAPKs and STAT1/STAT3
CE and FFA in senescent T cells ([6]; CD8+ T cells pretreated with KU55933 (10 μM) 1 day, nTreg co-culture 3 days): markedly prevented Treg-induced up-regulation of CE and FFA

CSC[C@H]1O[C@@H](n2cnc3c(N)ncnc32)[C@H](O)[C@@H]1O [MTA]
cell senescence (SA-β-gal) in naïve T cells, substance alone (naïve T cells [7]; [12]): did not promote cell senescence
LD formation (Oil red O+ T cell populations) induced by Treg cells [4, 10]: significantly decreased Oil red O+ T cell populations
senescent (SA-β-gal+) T cell populations induced by Treg cells [3, 9]: prevented senescence induction
LD formation (Oil-red O) in naïve T cells, substance alone (naïve T cells [8]; [12]): did not promote cell senescence and LD formation
cPLA2α expression in Treg-induced senescent T cells (cPLA2α; [11]): dramatically suppressed the enhanced cPLA2α expression
CE and PC in senescent T cells [6, 13]: significantly prevented the Treg-induced up-regulation of CE and down-regulation of PC

Cc1ccc(S(=O)(=O)OCC(=O)Nc2ccc(C(=O)O)c(O)c2)cc1 [S3I-201]
cell senescence (SA-β-gal) in naïve T cells, substance alone (naïve T cells [7]; [12]): did not promote cell senescence
LD formation (Oil red O+ T cell populations) induced by Treg cells [4, 10]: significantly decreased Oil red O+ T cell populations
senescent (SA-β-gal+) T cell populations induced by Treg cells [3, 9]: prevented senescence induction
LD formation (Oil-red O) in naïve T cells, substance alone (naïve T cells [8]; [12]): did not promote cell senescence and LD formation
cPLA2α expression in Treg-induced senescent T cells (cPLA2α; [11]): dramatically suppressed the enhanced cPLA2α expression
CE and PC in senescent T cells [6, 13]: significantly prevented the Treg-induced up-regulation of CE and down-regulation of PC

C[S+]([O-])c1ccc(-c2nc(-c3ccncc3)c(-c3ccc(F)cc3)[nH]2)cc1 (stereo not shown) [SB203580]
cell senescence (SA-β-gal) in naïve T cells, substance alone (naïve T cells [7]): did not promote cell senescence
LD formation (Oil red O+ T cell populations) induced by Treg cells [4]: significantly decreased Oil red O+ T cell populations
senescent (SA-β-gal+) T cell populations induced by Treg cells [3]: prevented senescence induction
LD formation (Oil-red O) in naïve T cells, substance alone (naïve T cells [8]): did not promote cell senescence and LD formation
cPLA2α expression in Treg-induced senescent T cells (cPLA2α): dramatically suppressed the enhanced cPLA2α expression
CE and PC in senescent T cells [6]: significantly prevented the Treg-induced up-regulation of CE and down-regulation of PC

N#CC(=C(/N)Sc1ccccc1N)/C(C#N)=C(\N)Sc1ccccc1N [U0126]
cell senescence (SA-β-gal) in naïve T cells, substance alone (naïve T cells [7]): did not promote cell senescence
LD formation (Oil red O+ T cell populations) induced by Treg cells [4]: significantly decreased Oil red O+ T cell populations
senescent (SA-β-gal+) T cell populations induced by Treg cells [3]: prevented senescence induction
LD formation (Oil-red O) in naïve T cells, substance alone (naïve T cells [8]): did not promote cell senescence and LD formation
cPLA2α expression in Treg-induced senescent T cells (cPLA2α): dramatically suppressed the enhanced cPLA2α expression
CE and PC in senescent T cells [6]: significantly prevented the Treg-induced up-regulation of CE and down-regulation of PC

CC(C)c1cc(C(C)C)c(CC(=O)NS(=O)(=O)Oc2c(C(C)C)cccc2C(C)C)c(C(C)C)c1 [avasimible]
cell senescence (SA-β-gal) in naïve T cells, substance alone (naïve T cells [7]; [12]): does not induce cell senescence
LD formation (Oil red O+ T cell populations) induced by Treg cells [4, 10]: dramatically reduced
senescent (SA-β-gal+) T cell populations induced by Treg cells [3, 9]: dramatically reduced
LD formation (Oil-red O) in naïve T cells, substance alone (naïve T cells [8]; [12]): does not induce cell senescence and LD formation
total and sub-fractions of CE in senescent T cells ([6]; CD8+ T cells pretreated 24 hours, nTreg co-culture 3 days): did not significantly down-regulate total and sub-fractions of CE

CCCCCCCCCCC[C@@H](C[C@@H]1OC(=O)[C@H]1CCCCCC)OC(=O)[C@H](CC(C)C)NC=O [orlistat]
cell senescence (SA-β-gal) in naïve T cells, substance alone (naïve T cells [7]; [12]): dramatically increased cell senescence
LD formation (Oil-red O) in naïve T cells, substance alone (naïve T cells [8]; [12]): promoted LD formation

Lysophosphatidylcholine [LPC]
senescence induction in T cells co-cultured with nTreg cells, lipid supplement [3]: markedly prevented senescence induction

Phosphatidylethanolamine [PE]
senescence induction in T cells co-cultured with nTreg cells, lipid supplement [3]: markedly prevented senescence induction

Phosphatidylserine [PS]
senescence induction in T cells co-cultured with nTreg cells, lipid supplement [3]: markedly prevented senescence induction
